Assay results from patent publication US11046671B2, “Dihydropyrimidinyl benzazepine carboxamide compounds” (Hoffmann-La Roche Inc., priority 2016, dated 2021).

What was measured:
[1] = target: human TLR8 (Homo sapiens (Human), UniProt Q9NR97); assay: HEK-Blue human TLR8 cells, NF-κB SEAP reporter assay; type: cell-based; conditions: 20 hours stimulation
Source text: (§1) For TLR8 and TLR7 activity testing, HEK-Blue human TLR8 or TLR7 cells (Invivogen, San Diego, Calif., USA) are used, respectively. These cells are designed for studying the stimulation of human TLR8 or TLR7 by monitoring the activation of NF-κB. A SEAP (secreted embryonic alkaline phosphatase) reporter gene is placed under the control of the IFN-b minimal promoter fused to five NF-κB and AP-1-binding sites. Therefore the reporter expression is regulated by the NF-κB promoter upon stimulation of human TLR8 or TLR7 for 20 hours. The cell culture supernatant SEAP reporter activity was determined using Quanti Blue kit (Invivogen, San Diego, Ca, USA) at a wavelength of 640 nm, a detection medium that turns purple/blue in the presence of alkaline phosphatase. EC50 values were determined using Activity Base analysis (ID Business Solution, Limited).

[2] = target: human TLR7 (Homo sapiens (Human), UniProt Q9NYK1); assay: HEK-Blue human TLR7 cells, NF-κB SEAP reporter assay; type: cell-based; conditions: 20 hours stimulation
Sequence of human TLR7 (Q9NYK1 27-1049): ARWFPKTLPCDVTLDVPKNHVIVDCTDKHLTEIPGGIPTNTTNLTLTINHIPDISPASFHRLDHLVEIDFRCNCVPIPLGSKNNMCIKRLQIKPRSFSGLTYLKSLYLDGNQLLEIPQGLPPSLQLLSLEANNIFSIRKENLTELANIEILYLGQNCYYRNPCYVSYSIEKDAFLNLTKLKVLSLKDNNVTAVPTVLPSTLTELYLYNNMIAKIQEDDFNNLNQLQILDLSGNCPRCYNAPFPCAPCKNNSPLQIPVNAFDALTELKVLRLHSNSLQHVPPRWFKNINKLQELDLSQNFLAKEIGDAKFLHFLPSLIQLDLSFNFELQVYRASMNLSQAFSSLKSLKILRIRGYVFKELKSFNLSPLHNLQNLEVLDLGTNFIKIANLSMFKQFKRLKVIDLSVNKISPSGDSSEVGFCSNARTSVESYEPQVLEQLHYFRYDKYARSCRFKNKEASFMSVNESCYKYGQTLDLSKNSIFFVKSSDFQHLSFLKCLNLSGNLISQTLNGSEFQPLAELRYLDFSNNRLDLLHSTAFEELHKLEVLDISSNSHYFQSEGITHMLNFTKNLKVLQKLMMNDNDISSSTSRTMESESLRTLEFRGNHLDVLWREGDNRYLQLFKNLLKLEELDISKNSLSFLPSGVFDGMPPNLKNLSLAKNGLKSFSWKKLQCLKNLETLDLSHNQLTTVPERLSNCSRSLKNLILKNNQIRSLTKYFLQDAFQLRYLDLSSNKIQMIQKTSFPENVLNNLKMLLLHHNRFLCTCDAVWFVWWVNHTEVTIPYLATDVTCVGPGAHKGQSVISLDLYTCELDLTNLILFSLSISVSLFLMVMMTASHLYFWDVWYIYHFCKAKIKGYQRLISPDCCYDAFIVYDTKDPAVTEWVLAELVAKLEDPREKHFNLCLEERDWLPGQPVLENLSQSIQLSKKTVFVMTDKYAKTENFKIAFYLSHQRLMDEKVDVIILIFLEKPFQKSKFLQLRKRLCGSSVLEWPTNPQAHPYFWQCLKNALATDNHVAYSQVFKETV
Source text: as §1

Sequence of human TLR8 (Q9NR97 27-1041): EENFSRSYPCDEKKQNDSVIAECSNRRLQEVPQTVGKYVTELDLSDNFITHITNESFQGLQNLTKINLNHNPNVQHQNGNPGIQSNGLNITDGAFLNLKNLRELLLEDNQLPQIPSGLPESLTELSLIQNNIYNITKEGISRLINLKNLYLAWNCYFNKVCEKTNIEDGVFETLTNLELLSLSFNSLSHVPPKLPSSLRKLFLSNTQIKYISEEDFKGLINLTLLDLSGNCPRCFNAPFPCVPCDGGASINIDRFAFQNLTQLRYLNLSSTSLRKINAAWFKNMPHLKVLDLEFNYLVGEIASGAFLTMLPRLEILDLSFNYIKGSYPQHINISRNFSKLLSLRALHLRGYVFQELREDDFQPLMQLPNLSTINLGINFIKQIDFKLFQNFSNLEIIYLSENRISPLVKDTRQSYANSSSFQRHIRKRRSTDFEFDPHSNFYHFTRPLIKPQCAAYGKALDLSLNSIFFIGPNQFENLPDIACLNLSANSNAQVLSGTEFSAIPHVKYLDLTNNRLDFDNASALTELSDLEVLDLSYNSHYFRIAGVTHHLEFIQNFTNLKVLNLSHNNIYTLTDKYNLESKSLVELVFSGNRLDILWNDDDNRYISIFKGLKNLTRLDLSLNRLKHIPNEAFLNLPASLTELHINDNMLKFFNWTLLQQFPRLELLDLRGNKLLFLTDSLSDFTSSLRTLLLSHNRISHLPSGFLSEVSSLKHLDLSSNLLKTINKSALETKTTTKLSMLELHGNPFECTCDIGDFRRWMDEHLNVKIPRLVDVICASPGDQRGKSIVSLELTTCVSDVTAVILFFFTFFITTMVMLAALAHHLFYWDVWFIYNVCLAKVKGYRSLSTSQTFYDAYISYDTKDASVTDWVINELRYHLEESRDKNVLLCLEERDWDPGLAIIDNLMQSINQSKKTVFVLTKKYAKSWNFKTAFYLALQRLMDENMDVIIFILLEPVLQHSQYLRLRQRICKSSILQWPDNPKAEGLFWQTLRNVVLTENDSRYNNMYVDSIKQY

Structure (SMILES) | EC50 [1] [nM] | EC50 [2] [nM]
CCCN(CC1CC1)C(=O)C1=Cc2ccc(C3=NCc4ccccc4N3)cc2N=C(N)C1 [Example 3, 2-Amino-N-(cyclopropylmethyl)-8-(1,4-dihydroquinazolin-2-yl)-N-propyl-3H-1-benzazepine-4-carboxamide] | 6 | > 100000
CCCN(CC(C)C)C(=O)C1=Cc2ccc(C3=NCc4ccccc4N3)cc2N=C(N)C1 [Example 4, 2-Amino-8-(1,4-dihydroquinazolin-2-yl)-N-isobutyl-N-propyl-3H-1-benzazepine-4-carboxamide] | 11 | > 100000
CCCN(CCC)C(=O)C1=Cc2ccc(C3=NCc4c(Cl)cccc4N3)cc2N=C(N)C1 [Example 5, 2-Amino-8-(5-chloro-1,4-dihydroquinazolin-2-yl)-N,N-dipropyl-3H-1-benzazepine-4-carboxamide] | 11 | 
CCCN(CCC)C(=O)C1=Cc2ccc(C3=NCc4ccc(Cl)cc4N3)cc2N=C(N)C1 [Example 6, 2-Amino-8-(7-chloro-1,4-dihydroquinazolin-2-yl)-N,N-dipropyl-3H-1-benzazepine-4-carboxamide] | 9 | > 100000
CCCN(CCC)C(=O)C1=Cc2ccc(C3=NC(C)(C)c4ccccc4N3)cc2N=C(N)C1 [Example 7, 2-Amino-8-(4,4-dimethyl-1H-quinazolin-2-yl)-N,N-dipropyl-3H-1-benzazepine-4-carboxamide] | 7 | > 100000
CCCN(CCC)C(=O)C1=Cc2ccc(C3=NCc4cc(Cl)ccc4N3)cc2N=C(N)C1 [Example 8, 2-Amino-8-(6-chloro-1,4-dihydroquinazolin-2-yl)-N,N-dipropyl-3H-1-benzazepine-4-carboxamide] | 6 | > 100000
CCCN(CCC)C(=O)C1=Cc2ccc(C3=NCc4c(F)cccc4N3)cc2N=C(N)C1 [Example 10, 2-Amino-8-(5-fluoro-1,4-dihydroquinazolin-2-yl)-N,N-dipropyl-3H-1-benzazepine-4-carboxamide] | 3 | > 100000

Continued by falling EC50 [1], values first:

EC50 [1] [nM] | EC50 [2] [nM] | Structure (SMILES)
3 | > 100000 | CCCN(CCC)C(=O)C1=Cc2ccc(C3=NCc4ccccc4N3)cc2N=C(N)C1 [Example 1, 2-Amino-8-(1,4-dihydroquinazolin-2-yl)-N,N-dipropyl-3H-1-benzazepine-4-carboxamide]
3 | > 100000 | CCCN(CCC)C(=O)C1=Cc2ccc(C3=NCc4ccncc4N3)cc2N=C(N)C1 [Example 2, 2-Amino-8-(1,4-dihydropyrido[3,4-d]pyrimidin-2-yl)-N,N-dipropyl-3H-1-benzazepine-4-carboxamide]
2 | > 100000 | CCCN(CCC)C(=O)C1=Cc2ccc(C3=NCc4cc(OC)ccc4N3)cc2N=C(N)C1 [Example 11, 2-Amino-8-(6-methoxy-1,4-dihydroquinazolin-2-yl)-N,N-dipropyl-3H-1-benzazepine-4-carboxamide]
1 | > 100000 | CCCN(CCC)C(=O)C1=Cc2ccc(C3=NCc4c(C)cccc4N3)cc2N=C(N)C1 [Example 9, 2-Amino-8-(5-methyl-1,4-dihydroquinazolin-2-yl)-N,N-dipropyl-3H-1-benzazepine-4-carboxamide]
